Measurements taken from US20160367961A1, “METHOD AND COMPOSITION FOR PEPTIDE C[…] PROTEASE TREATMENT” (Roche Sequencing Solutions, Inc., priority 2015, published 2016).
Square brackets hold non-standard residues; d marks the D form. Peptide text beside a SMILES is read from it.

What was measured:
streptavidin = streptavidin (Streptomyces avidinii, UniProt P22629); assay: biochemical
Method: Surface plasmon resonance (SPR) experiments were performed on a BIAcore X100 (GE Healthcare). The running buffer was HBS-EP+. To prepare a streptavidin coated chip, 100 ug/mL streptavidin in Acetate 5.0 immobilization buffer was coupled to flow cell 2 of a CM5 chip using the Amine Coupling Kit (GE Healthcare. The chip was then conditioned by flowing a solution containing 0.2 M NaCl and 10 mM NaOH in water over the prepared chip for 60 seconds. The binding affinities of the cyclic and linear peptides were measured against the prepared streptavidin chip using a multiple cycle experiment with base regeneration between each step. Here, seven prepared concentrations of peptide in HBS-EP+ buffer were flowed over the streptavidin chip for 30 seconds and then allowed to dissociate for 60 seconds. Following each peptide concentration, the streptavidin chip was regenerated by flowing 0.2 M NaCl and 10 mM NaOH in water over the chip for 30 seconds followed by a stabilization period of 120 seconds. Kinetic parameters were determined using BIAcore X100 Evaluation Software Version 2.0.1.

streptavidin-Cy5 = streptavidin-Cy5 (Streptomyces avidinii, UniProt P22629); assay: Streptavidin-Cy5 binding to cyclic/linear peptide microarray, Cy5 fluorescence scan
Method: Slides were bound with […] streptavidin-Cy5 in 30 mL binding buffer for 30 minutes at room temperature. Binding buffer contained 1% alkali soluble casein and 0.05% tween-20 in 1×TBS, pH 7.4. After 30 minutes, slides were washed twice in 1×TBS buffer for 1 minute, water for 30 seconds, and spun to dryness.
Cy5 fluorescence intensity of the arrays was measured with MS200 scanner (Roche NimbleGen) at resolution 2 um, wavelength 635 nm, gain 25% and laser intensity 100%. Cy5 signal intensities were extracted using Image Extraction Software (Roche NimbleGen). Data pre-processing, normalization and statistical tests were done in R. Data visualization and analysis were performed with Spotfire 6.5.0 (Tibco, Boston, Mass.) software platform.

[1] = extension of HPQ-specific design JXXHPQXXJU, all J combinations (Example 12), FIG. 15

Chain of streptavidin-Cy5 (P22629 25-183): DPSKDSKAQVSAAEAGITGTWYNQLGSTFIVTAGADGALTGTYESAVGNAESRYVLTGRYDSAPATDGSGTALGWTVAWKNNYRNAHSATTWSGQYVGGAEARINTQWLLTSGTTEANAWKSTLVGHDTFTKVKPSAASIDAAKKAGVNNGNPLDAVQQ
Chain of streptavidin (P22629 25-183, species assumed): as the sequence (P22629 25-183) above

## CC(C)C[C@@H]1NC(=O)[C@H](CCC(N)=O)NC(=O)CNC(=O)CNC(=O)[C@H](CC(N)=O)NC(=O)[C@H](CCC(N)=O)NC(=O)[C@@H]2CCCN2C(=O)[C@H](Cc2c[nH]cn2)NC(=O)[C@H](CC(=O)O)NC(=O)[C@H](Cc2ccc(O)cc2)NC1=O [cyclic LYDHPQNGGQ, LYDHPQNGGQ] (cyclo(DHPQNGGQLY))
streptavidin
  Kd: 9.4 µM

## NC(=O)CC[C@@H]1NC(=O)[C@H](Cc2c[nH]c3ccccc23)NC(=O)[C@H]2CCCN2C(=O)[C@H](CCC(N)=O)NC(=O)[C@H](CC(N)=O)NC1=O [cyclic NQpWQ, NQpWQ] (cyclo(NQ[dP]WQ))
streptavidin
  Kd: 61.3 µM

## NC(=O)CC[C@@H]1NC(=O)CNC(=O)CNC(=O)[C@H](CC(N)=O)NC(=O)[C@H](CCC(N)=O)NC(=O)[C@@H]2CCCN2C(=O)[C@H](Cc2c[nH]cn2)NC(=O)[C@H](CC(=O)O)NC(=O)[C@H](CC(N)=O)NC(=O)[C@H](CCC(N)=O)NC1=O [cyclic QNDHPQNGGQ, QNDHPQNGGQ] (cyclo(DHPQNGGQQN))
streptavidin
  Kd: 10.8 µM

## NC(=O)CC[C@H](NC(=O)[C@H](Cc1c[nH]c2ccccc12)NC(=O)[C@H]1CCCN1C(=O)[C@H](CCC(N)=O)NC(=O)[C@@H](N)CC(N)=O)C(=O)O [linear NH2-NQpWQ-COOH, NH2-NQpWQ-COOH] (H-NQ[dP]WQ-OH)
streptavidin
  Kd: > 2000 µM

## H-LYDHPQNGGQ-OH [linear NH2-LYDHPQNGGQ-COOH, NH2-LYDHPQNGGQ-COOH]
streptavidin
  Kd: 100 µM

## H-QNDHPQNGGQ-OH [linear NH2-QNDHPQNGGQ-COOH, NH2-QNDHPQNGGQ-COOH]
streptavidin
  Kd: 320 µM

## LYDHPQNGGU (cyclo(LYDHPQNGGE); also: position 10: U in name, array-bound via glutamate side chain) [cylic LYDHPQNGGU, U = glutamate attached to the surface through its side chain]
streptavidin-Cy5; [1]
  cyclic fluorescent intensity: highest cyclic intensity

## NQpWU (cyclo(NQ[dP]WE); also: position 5: U in name, array-bound via glutamate side chain) [cylic NQpWU, U = glutamate attached to the surface through its side chain, p = D-proline]
streptavidin-Cy5; peptide library of the format XXXXU (Example 9), cyclic subarray, FIG. 10
  cyclic fluorescent intensity: highest cyclic fluorescent intensity

## QNDHPQNGGU (cyclo(QNDHPQNGGE); also: position 10: U in name, array-bound via glutamate side chain) [cyclic QNDHPQNGGU, U = glutamate attached to the surface through its side chain]
streptavidin-Cy5; extension of HPQ-specific design JXXHPQXXJU (Example 12), FIG. 15, positive logFC = preference for cyclic peptide
  log fold change (logFC) between cyclic and linear fluorescent intensity: high logFC
streptavidin-Cy5; [1]
  cyclic fluorescent intensity: high cyclic intensitiy
